Results as given in DBAASP.
Values after ≈ are worked out from the molar mass of the structure shown.

Experiments:
Assay in all cases: ≥ marks a high value that may be exact or a test limit, other limits are often not marked, values filed in µg/mL are converted to µM
[1] = system: Clavibacter michiganensis subsp. michiganensis DSM 46294
[2] = system: Pectobacterium carotovorum subsp. carotovorum DSM 30168
[3] = system: Pseudomonas corrugata DSM 7228
[4] = system: Pseudomonas syringae pv. syringae DSM 10604
[5] = system: Pseudomonas syringae pv. tomato DC3000
[6] = system: Staphylococcus aureus 90857
[7] = system: Xanthomonas vesicatoria DSM 50861
Escherichia coli JM109 = system: Escherichia coli JM109
[8] = system: Staphylococcus aureus ATCC 6538P
Staphylococcus aureus = system: Staphylococcus aureus
[9] = system: Pseudomonas aeruginosa Ps4

Structure (SMILES) | MIC [1] | MIC [2] | MIC [3] | MIC [4] | MIC [5] | MIC [6] | MIC [7] | MIC (Escherichia coli JM109) | MIC [8] | MIC (Staphylococcus aureus) | MIC [9]
CC(C)C[C@H](NC(=O)[C@H](Cc1ccccc1)NC(=O)[C@H](CC(C)C)NC(=O)[C@H](CCCN=C(N)N)NC(=O)[C@H](CC(C)C)NC(=O)[C@H](Cc1ccccc1)NC(=O)[C@H](CC(C)C)NC(=O)[C@H](CCCN=C(N)N)NC(=O)[C@H](Cc1ccccc1)NC(=O)[C@H](CC(C)C)NC(=O)[C@H](CCCN=C(N)N)NC(=O)[C@H](Cc1ccccc1)NC(=O)[C@H](CC(C)C)NC(=O)[C@H](Cc1ccccc1)NC(=O)[C@H](CC(C)C)NC(=O)[C@H](CCCN=C(N)N)NC(=O)[C@H](CCCN=C(N)N)NC(=O)[C@@H](N)CCCCN)C(=O)N[C@@H](CCCCN)C(=O)N[C@@H](CCCCN)C(N)=O [KRRLFLFRLFRLFLRLFLKK] | 0.922 µM (≈ 2.5 µg/mL) | 3.69 µM (≈ 10 µg/mL) | 3.69 µM (≈ 10 µg/mL) | 3.69 µM (≈ 10 µg/mL) | 1.84 µM (≈ 5 µg/mL) | 4 µM (≈ 10.8 µg/mL) | 0.922 µM (≈ 2.5 µg/mL) |  |  |  | 
CC[C@H](C)[C@H](NC(=O)[C@H](C)NC(=O)[C@H](CC(C)C)NC(=O)[C@H](CCCN=C(N)N)NC(=O)[C@H](CC(C)C)NC(=O)[C@@H](NC(=O)[C@H](CCCN=C(N)N)NC(=O)[C@H](CC(C)C)NC(=O)[C@@H](NC(=O)[C@H](CC(C)C)NC(=O)[C@H](CCCN=C(N)N)NC(=O)[C@H](CCCN=C(N)N)NC(=O)[C@@H](N)CCCCN)[C@@H](C)CC)[C@@H](C)CC)C(=O)N[C@@H](CCCN=C(N)N)C(=O)N[C@@H](C)C(=O)N[C@@H](CC(C)C)C(=O)N[C@H](C(=O)N[C@@H](CCCCN)C(=O)N[C@@H](CCCCN)C(=O)N[C@@H](CCCN=C(N)N)C(N)=O)C(C)C [KRRLILRILRLAIRALVKKR] | 0.101 µM (≈ 0.25 µg/mL) | 4.02 µM (≈ 10 µg/mL) | 2.01 µM (≈ 5 µg/mL) | 2.01 µM (≈ 5 µg/mL) | 4.02 µM (≈ 10 µg/mL) | 4 µM (≈ 9.94 µg/mL) | 0.101 µM (≈ 0.25 µg/mL) |  |  |  | 
CC[C@H](C)[C@H](NC(=O)[C@H](CC(N)=O)NC(=O)[C@H](CCCN=C(N)N)NC(=O)[C@H](CCC(N)=O)NC(=O)[C@H](Cc1c[nH]c2ccccc12)NC(=O)[C@@H](N)Cc1ccccc1)C(=O)N[C@@H](CCCCN)C(=O)N[C@H](C(=O)N[C@@H](CCCN=C(N)N)C(N)=O)C(C)C [FWQRNIKVR] |  |  |  |  |  |  |  |  |  |  | ≥ 201 µM

Continued, values first:

MIC [1] | MIC [2] | MIC [3] | MIC [4] | MIC [5] | MIC [6] | MIC [7] | MIC (Escherichia coli JM109) | MIC [8] | MIC (Staphylococcus aureus) | MIC [9] | Structure (SMILES)
6.57 µM (≈ 9.99 µg/mL) | 6.57 µM (≈ 9.99 µg/mL) | 6.57 µM (≈ 9.99 µg/mL) | 3.28 µM (≈ 5 µg/mL) | 1.64 µM (≈ 2.5 µg/mL) | ≥ 62.5 µM | 6.57 µM (≈ 9.99 µg/mL) |  |  |  |  | CC(C)C[C@H](NC(=O)[C@H](CCCN=C(N)N)NC(=O)[C@H](CCCCN)NC(=O)[C@H](CCCCN)NC(=O)[C@@H](N)CCCN=C(N)N)C(=O)N[C@@H](CCCCN)C(=O)N[C@H](C(=O)N[C@H](C(=O)N[C@@H](CCCCN)C(=O)N[C@@H](CCCN=C(N)N)C(=O)N[C@@H](CC(C)C)C(=O)N[C@H](C(N)=O)C(C)C)C(C)C)C(C)C [RKKRLKVVKRLV]
 |  |  |  |  |  |  | 17.4 µM | 5.42 µM | > 46.3 µM |  | CC[C@H](C)[C@H](NC(=O)[C@H](C)NC(=O)[C@H](CC(C)C)NC(=O)[C@H](CS)NC(=O)[C@H](Cc1cnc[nH]1)NC(=O)[C@H](C)NC(=O)[C@H](C)NC(=O)[C@H](CS)NC(=O)[C@@H](N)CC(C)C)C(=O)N[C@@H](CCCN=C(N)N)C(=O)N[C@@H](CCCN=C(N)N)C(=O)N[C@@H](CCCN=C(N)N)C(N)=O [LCAAHCLAIRRR]
0.308 µM (≈ 0.5 µg/mL) | 1.54 µM (≈ 2.5 µg/mL) | 0.308 µM (≈ 0.5 µg/mL) | 0.308 µM (≈ 0.5 µg/mL) | 0.615 µM (≈ 0.999 µg/mL) | 0.625 µM (≈ 1.02 µg/mL) | 0.308 µM (≈ 0.5 µg/mL) |  |  |  |  | CC[C@H](C)[C@H](NC(=O)[C@H](CCCN=C(N)N)NC(=O)[C@H](CCCN=C(N)N)NC(=O)[C@H](CC(C)C)NC(=O)[C@H](Cc1ccccc1)NC(=O)[C@H](CCCN=C(N)N)NC(=O)[C@@H](N)CC(C)C)C(=O)N[C@@H](CC(C)C)C(=O)N[C@@H](CCCN=C(N)N)C(=O)N[C@@H](CCCN=C(N)N)C(=O)N[C@@H](CC(C)C)C(=O)N[C@@H](CC(C)C)C(N)=O [LRFLRRILRRLL]
